# Results taken from ChEMBL document CHEMBL1154653, “Discovery and pharmacological characterization of aryl piperazine and piperidine ethers as dual acting norepinephrine reuptake inhibitors and 5-HT1A partial agonists” (Bioorg Med Chem Lett, 2009).
# What was measured:
# [1] = molecular target: T1, 5-hydroxytryptamine receptor 1A (Homo sapiens, UniProt P08908); assay: biochemical
# T1 sequence (P08908 whole entry): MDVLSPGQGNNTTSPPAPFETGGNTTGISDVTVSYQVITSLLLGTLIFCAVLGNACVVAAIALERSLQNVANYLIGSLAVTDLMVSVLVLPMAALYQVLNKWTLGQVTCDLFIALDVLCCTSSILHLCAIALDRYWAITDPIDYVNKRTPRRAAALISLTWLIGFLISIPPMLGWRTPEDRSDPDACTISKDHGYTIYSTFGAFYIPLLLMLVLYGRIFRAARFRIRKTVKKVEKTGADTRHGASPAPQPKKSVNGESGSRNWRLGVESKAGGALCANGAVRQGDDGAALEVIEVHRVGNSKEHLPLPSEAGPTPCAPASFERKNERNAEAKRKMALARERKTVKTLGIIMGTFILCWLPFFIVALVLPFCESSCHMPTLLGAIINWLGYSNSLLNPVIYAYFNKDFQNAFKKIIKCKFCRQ
# Description: Displacement of [3H]8-OH-DPAT from human 5HT1A receptor expressed in CHO cells
# [2] = molecular target: T2, Sodium-dependent serotonin transporter (Homo sapiens, UniProt P31645); assay: biochemical
# T2 sequence (P31645 whole entry): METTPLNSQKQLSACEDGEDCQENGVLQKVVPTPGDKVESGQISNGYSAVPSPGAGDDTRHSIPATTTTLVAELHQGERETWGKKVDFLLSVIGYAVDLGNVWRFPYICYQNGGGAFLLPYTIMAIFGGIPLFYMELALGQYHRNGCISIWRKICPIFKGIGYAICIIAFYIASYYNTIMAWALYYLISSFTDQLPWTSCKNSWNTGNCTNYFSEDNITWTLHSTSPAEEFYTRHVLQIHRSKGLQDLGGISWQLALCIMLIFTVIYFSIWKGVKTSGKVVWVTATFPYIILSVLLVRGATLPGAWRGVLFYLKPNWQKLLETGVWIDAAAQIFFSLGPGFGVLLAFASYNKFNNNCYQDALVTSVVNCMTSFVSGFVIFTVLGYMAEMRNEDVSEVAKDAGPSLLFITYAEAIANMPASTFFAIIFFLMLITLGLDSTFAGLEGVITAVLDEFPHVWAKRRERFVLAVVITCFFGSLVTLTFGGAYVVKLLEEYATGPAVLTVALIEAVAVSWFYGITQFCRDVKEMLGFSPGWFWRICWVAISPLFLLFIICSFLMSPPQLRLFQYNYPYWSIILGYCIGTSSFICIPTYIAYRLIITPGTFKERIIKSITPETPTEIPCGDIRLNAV
# Description: Displacement of [125I]RTI-55 from human SERT expressed in HEK293 cells
# [3] = molecular target: T3, Sodium-dependent noradrenaline transporter (Homo sapiens, UniProt P23975); assay: biochemical
# T3 sequence (P23975 whole entry): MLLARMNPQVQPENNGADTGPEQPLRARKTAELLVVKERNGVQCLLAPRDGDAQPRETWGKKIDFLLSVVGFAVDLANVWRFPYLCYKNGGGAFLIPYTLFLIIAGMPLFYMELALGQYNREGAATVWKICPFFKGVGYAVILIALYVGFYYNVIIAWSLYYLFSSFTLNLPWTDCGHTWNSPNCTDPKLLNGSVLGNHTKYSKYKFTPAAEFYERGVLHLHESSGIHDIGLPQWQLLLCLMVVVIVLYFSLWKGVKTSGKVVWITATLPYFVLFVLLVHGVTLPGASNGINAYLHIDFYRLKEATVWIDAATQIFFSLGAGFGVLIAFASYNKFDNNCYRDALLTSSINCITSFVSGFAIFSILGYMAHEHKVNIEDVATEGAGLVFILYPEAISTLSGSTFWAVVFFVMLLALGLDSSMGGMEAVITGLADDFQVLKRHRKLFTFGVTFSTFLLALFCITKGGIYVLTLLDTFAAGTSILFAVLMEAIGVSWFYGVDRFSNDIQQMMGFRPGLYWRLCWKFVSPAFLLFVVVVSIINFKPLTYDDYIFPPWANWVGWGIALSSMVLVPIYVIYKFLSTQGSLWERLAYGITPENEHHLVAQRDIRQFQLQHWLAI
# Description: Displacement of [125I]RTI-55 from human NET expressed in HEK293 cells
# [4] = molecular target: T4, Sodium-dependent dopamine transporter (Homo sapiens, UniProt Q01959); type: cell-based, HEK293
# T4 sequence (Q01959 whole entry): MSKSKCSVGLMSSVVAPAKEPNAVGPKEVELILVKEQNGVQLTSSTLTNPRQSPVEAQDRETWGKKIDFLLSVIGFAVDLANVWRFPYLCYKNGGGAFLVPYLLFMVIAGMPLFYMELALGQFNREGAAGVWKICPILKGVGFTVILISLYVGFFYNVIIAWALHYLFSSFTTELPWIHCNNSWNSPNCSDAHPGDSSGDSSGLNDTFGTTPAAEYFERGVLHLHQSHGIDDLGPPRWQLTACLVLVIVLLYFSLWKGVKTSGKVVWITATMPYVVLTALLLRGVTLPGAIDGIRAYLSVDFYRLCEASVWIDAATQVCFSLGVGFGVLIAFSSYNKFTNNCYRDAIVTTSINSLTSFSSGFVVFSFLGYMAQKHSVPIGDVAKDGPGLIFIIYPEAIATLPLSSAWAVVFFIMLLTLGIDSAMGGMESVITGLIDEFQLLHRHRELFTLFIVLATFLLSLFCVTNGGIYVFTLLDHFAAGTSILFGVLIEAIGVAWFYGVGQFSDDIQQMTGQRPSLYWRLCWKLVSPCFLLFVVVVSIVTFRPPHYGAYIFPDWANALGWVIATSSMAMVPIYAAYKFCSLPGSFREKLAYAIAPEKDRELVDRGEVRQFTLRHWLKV
# [5] = molecular target: T1, 5-hydroxytryptamine receptor 1A; assay: Partial agonist activity at human 5HT1A expressed in HEK293 cells by FLIPR assay; type: functional, cell-based
# Rattus norvegicus [6] = assay: Ex vivo receptor occupancy at 5HT1A receptor in Sprague-Dawley rat brain at 10 mg/kg, sc by [3H]-OH-DAPT binding; type: functional; conditions: route subcutaneous
# Rattus norvegicus [7] = assay: Ex vivo receptor occupancy at NET receptor in Sprague-Dawley rat brain at 10 mg/kg, sc by [3H]nisoxetine binding; type: functional; conditions: route subcutaneous
# [8] = molecular target: T5, 5-hydroxytryptamine receptor 1A (Homo sapiens) (UniProt P08908); assay: Partial agonist activity at human 5HT1A expressed in HEK293 cells by FLIPR assay relative to 5HT; type: functional, cell-based
# T5 sequence (whole entry): T1 sequence (P08908 whole entry)
# [9] = Apparent intrinsic clearance in human liver microsomes; type: ADME, Microsome
# [10] = molecular target: T3, Sodium-dependent noradrenaline transporter; assay: Inhibition of norepinephrine uptake at human NET expressed in HEK293 cells; type: cell-based
# [11] = molecular target: T4, Sodium-dependent dopamine transporter; assay: Inhibition of dopamine uptake at human DAT expressed in HEK293 cells; type: cell-based
# [12] = molecular target: T2, Sodium-dependent serotonin transporter; assay: Inhibition of [3H]5-HT uptake at human 5HTT expressed in HEK293 cells; type: cell-based
Ki [1] [µM],Ki [2] [µM],Ki [3] [µM],Ki [4] [µM],Compound,further results
0.009,0.081,0.005,0.087,O=C1C(Cc2ccccc2N2CCNCC2)SCCN1c1ccc(Cl)c(Cl)c1 (centres undefined),–
0.077,–,–,–,Fc1ccc(COc2ccccc2C2CCNCC2)cc1,–
0.047,–,–,–,Fc1ccccc1COc1ccccc1C1CCNCC1,–
> 1,0.049,1.94,0.461,Fc1cccc(OCc2ccccc2C2CCNCC2)c1,–
> 1,0.04,0.006,5.53,Fc1ccc(COc2ccc(Cl)cc2C2CCNCC2)cc1,–
0.057,0.026,0.003,1.08,Cc1ccc(F)c(Oc2ccccc2C2CCNCC2)c1,–
0.117,–,–,–,Fc1ccc(Oc2ccccc2C2CCNCC2)cc1,–
0.606,2.97,0.009,7.37,Fc1cccc(C2CCNCC2)c1OCc1ccccc1,–
> 1,0.364,1.71,0.396,c1ccc(OCc2ccccc2C2CCNCC2)cc1,–
0.364,–,–,–,Fc1cccc(OCc2ccccc2)c1C1CCNCC1,–
0.121,0.074,0.076,1,c1ccc(COc2ccccc2C2CCNCC2)cc1,–
0.004,0.098,0.65,1.36,O=C1/C(=C/c2ccccc2N2CCNCC2)SCCN1c1ccc(F)cc1F,–
0.02,2.33,1.37,0.239,Fc1cccc(C2CCNCC2)c1Oc1ccccc1,EC50 [5]: 0.877 µM; microsomal CLint [9]: 15 µL/min/mg; EC50 [10]: 0.358 µM; Emax [8]: 35%; EC50 [11]: 0.982 µM; EC50 [12]: 1.76 µM
0.005,–,–,–,Clc1cccc(Oc2ccccc2C2CCNCC2)c1,EC50 [5]: 1.15 µM; Emax [8]: 44%
0.128,0.706,0.17,0.045,Fc1cccc(Oc2ccccc2)c1C1CCNCC1,–
1.16,0.002,0.02,0.452,Fc1ccc(OCc2ccc(Cl)c(Cl)c2)c(C2CCNCC2)c1,–

# The next lines start with the molecule.
Compound,Ki [1] [µM],Ki [2] [µM],Ki [3] [µM],Ki [4] [µM],further results
Cc1ccc(C2CCNCC2)c(Oc2cccc(F)c2)c1,> 4.57,–,–,–,–
Fc1ccc(Oc2ccccc2N2CCNCC2)cc1,0.008,–,–,–,–
c1ccc(N2CCNCC2)c(COc2ccccc2C2CC2)c1,0.466,–,–,–,–
c1ccc(COc2ccccc2N2CCNCC2)cc1,0.028,–,–,–,EC50 [5]: > 10 µM
c1ccc(OCc2ccccc2N2CCNCC2)cc1,0.189,0.78,–,0.701,–
Fc1cccc(Oc2cccc(F)c2C2CCNCC2)c1,0.021,–,–,–,EC50 [5]: 0.137 µM; Activity (Rattus norvegicus [6]): 77%; Activity (Rattus norvegicus [7]): 80%; Emax [8]: 74%
Fc1ccc(COc2ccc(F)cc2C2CCNCC2)cc1,2.21,–,–,–,–
Fc1cccc(Oc2ccccc2C2CCNCC2)c1,–,–,–,–,Emax [8]: 51%
Fc1cccc(Oc2ccccc2N2CCNCC2)c1,0.009,–,–,–,–
c1ccc(Oc2ccccc2C2CCNCC2)cc1,0.063,1.76,0.416,0.284,–
Cc1ccc(C2CCNCC2)c(Oc2ccc(F)cc2)c1,> 4.57,0.427,0.115,1.68,–
Fc1ccc(Oc2cc(F)c(F)cc2C2CCNCC2)cc1,> 4.57,–,–,–,–
c1ccc(Oc2ccccc2N2CCNCC2)cc1,0.128,–,0.554,4.73,–
Fc1cccc(OCc2ccccc2N2CCNCC2)c1F,0.101,–,–,–,–
Fc1cccc(OCc2ccccc2N2CCNCC2)c1,0.116,0.017,0.104,> 2,–
Fc1ccccc1COc1ccccc1N1CCNCC1,0.031,0.978,0.526,> 10,–
